This is an account of results in the Deep4Chem optical property database.

Molecules are shown by their SMILES.

This data set can be described thus: solvent given as SMILES.

Regarding `O=P1(c2ccccc2)C(c2cc(C(F)(F)F)cc(C(F)(F)F)c2)=Cc2c3ccc4cccc5ccc(c6cc(-c7ccc(N(c8ccccc8)c8ccccc8)cc7)n1c26)c3c45` (stereo not given), the absorption maximum is 434 nm (in C1CCCCC1); 437 nm (in C1CCOC1); 436 nm (in C1COCCO1); 434 nm (in CC#N); 435 nm (in CC(C)=O); 444 nm (in CO). The absorption maximum worked out at 441 nm (in Cc1ccccc1), 441 nm (in ClC(Cl)Cl) and 437 nm (in ClCCl).

Take `CN1c2cc3nc4cc(Br)c(Br)cc4nc3cc2N(C)C1(C)C`: the absorption maximum (in CCO) is 473 nm.

With `C(#Cc1cc(C#Cc2cccs2)c(C#Cc2cccs2)c(C#Cc2cccs2)c1C#Cc1cccs1)c1cccs1`, the absorption maximum (in ClCCl) amounted to 372 nm.

With `CN(C)c1ccc(C2=C(c3ccccc3)c3sc4ccccc4[n+]3[B-](F)(F)O2)cc1`, the absorption maximum (in C1CCOC1) amounted to 446 nm.

Where the note is “in CC#N”, `CCNc1cc2oc(=O)cc(C(F)(F)F)c2cc1C` gave an absorption maximum of 383 nm.

On to `CCn1c2ccccc2sc2c(C#N)c3[nH]c4ccccc4sc3c(C#N)c21`, for which the absorption maximum (in ClC(Cl)Cl) came to 495 nm.

`O=C(c1ccccc1)c1cc2ccc1CCc1ccc(c(-c3ccc(N(c4ccccc4)c4ccccc4)cc3)c1)CC2` registered an absorption maximum (in Cc1ccccc1) of 312 nm.

With `Nc1nc2ccc(F)cc2[n+]([O-])n1`, the absorption maximum by setting is: (in CC#N) 415 nm; (in O) 422 nm.

Compound `COc1ccc2c(c1)CCC1=C(C#Cc3cc4ccccc4c4ccccc34)O[B-](F)(F)[O+]=C12` showed an absorption maximum (in ClCCl) of 465 nm.

Where the note is “in Cc1ccccc1”, `CC(C)(C)c1ccc2c(c1)c1cc(C(C)(C)C)ccc1n2-c1ccc(S(=O)(=O)c2ccc(-n3c4ccc(C(C)(C)C)cc4c4cc(C(C)(C)C)ccc43)cn2)nc1` showed an absorption maximum of 365.77 nm.

Turning to `CN(C)c1ccc(/C=C2\CC/C(=C\c3ccc(C#N)cc3)C2=O)cc1`, the absorption maximum came to 458 nm (in C1CCOC1); 456 nm (in CC#N); 454 nm (in CC(C)=O); 471 nm (in CC(C)O); 473 nm (in CCCCO); 442 nm (in CCCCOC(C)=O). Besides, the absorption maximum turned out to be 473 nm (in CCCO); 472 nm (in CCO); 459 nm (in CCOC(=O)c1ccccc1); 446 nm (in CCOC(C)=O); 438 nm (in CCOCC); 464 nm (in CN(C)C=O). Moreover, the absorption maximum (in CO) turned out to be 473 nm; the absorption maximum (in CS(C)=O) is recorded as 471 nm; the absorption maximum (in Cc1ccccc1) was found to be 455 nm; the absorption maximum (in ClC(Cl)(Cl)Cl) came to 446 nm; the absorption maximum (in ClC(Cl)Cl) was determined as 469 nm; the absorption maximum (in ClCCl) is listed as 464 nm. The compound further registered an absorption maximum (in Clc1ccccc1Cl) of 465 nm; an absorption maximum (in O=C1CCCC1) of 460 nm; an absorption maximum (in S=C=S) of 464 nm; an absorption maximum (in c1ccccc1) of 457 nm; an absorption maximum (in c1ccncc1) of 467 nm.

The compound `CN(C)c1ccc(C2=[N+]3C(=Nc4c(-c5ccc(OCCCCS(=O)(=O)[O-])cc5)cc(-c5ccc(N(C)C)cc5)n4[B-]3(F)F)C(c3ccc(OCCCCS(=O)(=O)[O-])cc3)=C2)cc1` displayed an absorption maximum (in CS(C)=O) of 786 nm.

`Nc1nc2c(ncn2[C@H]2C[C@H](O)[C@@H](CO)O2)c(=O)[nH]1`: the absorption maximum (in O) came out at 274 nm.

For `CCOC(=O)c1ccc(C2=CC3=c4cc(-c5ccc(C(=O)OCC)cc5)c5nc(C(F)(F)C(F)(F)C(F)(F)F)nc6c(-c7ccc(C(=O)OCC)cc7)cc(c4c65)C4=CC(c5ccc(C(=O)OCC)cc5)=C5N=C(C(F)(F)C(F)(F)C(F)(F)F)N=C2C5C43)cc1` (stereo not given), the absorption maximum (in C1CCOC1) is on record as 497 nm.

Turning to `Cc1cnc(NC(=O)C2=C([O-])c3ccccc3S(=O)(=O)N2C)s1`, the absorption maximum is 371 nm (in CC#N); 369 nm (in CCCCO); 368 nm (in CCCO); 366 nm (in CCO); 364 nm (in CO).
